From paper PMC3576019 (The Journal of steroid biochemistry and molecular biology, 2010)

How the values were obtained:
[1] = molecular target: porcine uterine progesterone receptor; settings: read-out: IC50 for the porcine uterine progesterone receptor; ref [17]; cited from earlier work
Progesterone Receptor = molecular target: T1, Progesterone Receptor (Homo sapiens, UniProt P06401); experiment: Alkaline phosphatase assay in T47D cells; assay type: cell-based; settings: 20 h, progesterone at 10nM
T1 sequence (P06401 1-933): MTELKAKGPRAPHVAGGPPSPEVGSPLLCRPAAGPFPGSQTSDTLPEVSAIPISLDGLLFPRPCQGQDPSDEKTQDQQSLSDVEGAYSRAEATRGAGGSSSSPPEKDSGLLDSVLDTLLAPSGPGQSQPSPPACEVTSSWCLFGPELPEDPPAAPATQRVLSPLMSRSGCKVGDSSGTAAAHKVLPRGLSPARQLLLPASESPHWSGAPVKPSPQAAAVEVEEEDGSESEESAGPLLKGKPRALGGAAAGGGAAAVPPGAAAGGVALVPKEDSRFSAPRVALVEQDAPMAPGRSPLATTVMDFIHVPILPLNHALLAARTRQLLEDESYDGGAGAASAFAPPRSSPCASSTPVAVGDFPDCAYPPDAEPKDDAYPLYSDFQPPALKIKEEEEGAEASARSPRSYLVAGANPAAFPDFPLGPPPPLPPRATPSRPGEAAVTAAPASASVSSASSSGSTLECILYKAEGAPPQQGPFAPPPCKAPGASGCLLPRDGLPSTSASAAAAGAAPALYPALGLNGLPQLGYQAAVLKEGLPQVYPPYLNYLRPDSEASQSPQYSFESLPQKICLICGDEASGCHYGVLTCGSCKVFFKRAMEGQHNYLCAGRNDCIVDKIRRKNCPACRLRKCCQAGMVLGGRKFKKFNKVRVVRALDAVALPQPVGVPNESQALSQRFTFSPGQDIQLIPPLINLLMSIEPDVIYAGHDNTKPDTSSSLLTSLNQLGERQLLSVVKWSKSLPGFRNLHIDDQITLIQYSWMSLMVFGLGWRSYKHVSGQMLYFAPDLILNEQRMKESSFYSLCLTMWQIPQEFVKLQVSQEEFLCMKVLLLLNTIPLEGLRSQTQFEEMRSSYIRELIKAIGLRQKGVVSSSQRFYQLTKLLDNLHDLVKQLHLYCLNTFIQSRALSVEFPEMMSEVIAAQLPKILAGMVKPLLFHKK

rabbit endometrium = experiment: McPhail assay in estrogen-primed immature rabbits; assay type: in vivo; settings: progesterone alone (method: MPA 0.15mg/kg/day)

| SMILES | IC50 [1] [nM] | induction of alkaline phosphatase activity (Progesterone Receptor) | progestational histologic changes (McPhail Index), positive control (rabbit endometrium) |
| --- | --- | --- | --- |
| CC(=O)O[C@H]1[C@@H](O)C=C2C=C3OC(=O)C(C)=C3C[C@]2(C)[C@H]1C [PF1092A] | 30 |  |  |
| CC(=O)[C@H]1CC[C@H]2[C@@H]3CCC4=CC(=O)CC[C@]4(C)[C@H]3CC[C@]12C [Progesterone] |  | significantly increased alkaline phosphatase activity | maximal progestational histologic changes were noted |
